Reference: patent publication US20220193013A1, “Pharmaceutical Composition for Treatment or Prevention of Multiple Inflammatory Disorders” (priority 2020, published 2022)

Legend:
[1] = system: leptin-deficient (ob/ob) mice; assay: body weight study of denatonium acetate in leptin-deficient (ob/ob) mice fed with high-fat diet, 28 days; assay type: in vivo, mouse; conditions: vs vehicle
Method: This example describes an in vivo study of denatonium acetate on body weight in leptin-deficient (ob/ob) mice. Adult leptin-deficient mice (homozygote, ob/ob mice) fed with high-fat diet. There was a vehicle control group (15 mice) that were treated with distilled water by gavage BID. The DA group (15 mice) were treated with a DA solution at a dose of 23.1 mg/kg BID. Body weights and body weight changes were determined at days 1, 3, 7, 10, 14, 21, 24 and 28. Food intake was determined on days 3, 7, 10, 14, 17, 21, […] and 28. On day 28 blood samples were taken for cytokine analysis, HbA1c, HDL, LDL, insulin, and bile acids. Statistics were done by two-way repeated measures ANOVA followed by Tukey's multiple comparison post hoc test.

[2] = system: air pouch model of inflammation, C57BL/6 mice; assay: murine air pouch model of inflammation (LPS induction); assay type: in vivo, mouse
Method: This example provides the results of investigating DA to modulate immune response in a murine air pouch model of inflammation. Eight C57BL/6 mice were assigned to groups for gavage treatment (BID) of controls (distilled water), DA at a dose of 23.1 mg/kg BID (low dose DA), and DA at a dose of 96.4 mg/kg BID (high dose DA). What was measured was infiltrating cell counts with air pouch exudates, IL-6 levels in air pouch exudates by an ELISA assay (R&D Systems Cat. No. M6000B), and multiple cytokine analysis (Mouse 32Plex Kit MilliporeSigma Cat. No. MCYTMAG70PMX32BK). Statistical analysis was done by a one-way ANOVA followed by Tukey's multiple comparison post hoc test for data with normal distribution, Kruskal-Wallis test followed by Dunn's multiple comparison post hoc test for data with skewed distribution, and the ROUT method for identifying outliers.
Duarte et al., Current Protocols in Pharmacology, 5.6.1-5.6.8 Mar. 2012, describes “The subcutaneous air pouch is an in vivo model that can be used to study acute and chronic inflammation, the resolution of the inflammatory response, and the oxidative stress response. Injection of irritants into an air pouch in rats or mice induces an inflammatory response that can be quantified by the volume of exudate produced, the infiltration of cells, and the release of inflammatory mediators. The model presented in this unit has been extensively used to identify potential anti-inflammatory drugs.” It can be used to study localized inflammation without systemic effects. But in this case the drug was administered orally, by gavage BID.
Test administration was 5 ml/kg body weight BID dosing with 8 hour intervals. The air pouch was created in each test BL6 mouse by sc injection of 1.5 ml/mouse of sterile air on day 0 and 1.5 ml/mouse of sterile air on day 3. Compounds (or control distilled water) were administered BID on day −2. LPS (0.75 mg/animal in 1 ml endotoxin free PBS) was administered at hour 0 or one hour after dosing with test compounds. Plasma samples were collected at termination and exudates of the air pouches for all groups. Cell count analysis and IL-6 assays were conducted at the animal facility and plasma and exudate samples were sent out for cytokine analysis. Each group of distilled water control, 23.1 mg/kg DA and 92.4 mg/kg DA had 8 mice each.

[3] = system: inflammatory biomarkers in tested animals; assay: biomarkers compared across many studies (Table 2); assay type: in vivo; conditions: PO 92.4 mg/kg DA BID
Method: The many examples provided herein show the effect of the denatonium salts on various in vivo and in vitro models of various disease indications. In addition, blood samples were taken from the tested (and control) animals and various biomarkers were measured and compared. FIGS. 70A-C show graphs comparing biomarkers across many studies. […] It should be noted that clusters of multiple biomarkers predict effectiveness for each disease indication and that grouping is shown in FIG. 71.

[4] = system: acute lung injury plus hyperthermia, CD-1 mice; assay: mouse acute lung injury plus hyperthermia model; assay type: in vivo
Method: This example provides results of a study to evaluate the effect of denatonium acetate in a mouse acute lung injury plus hyperthermia model. The procedure was three groups of CD-1 mice given (1) saline by gavage for oral administration BID, (2) DA administered oral at a dose of 92.4 mg/kg BID and (3) was DA iv at 3 mg/kg iv bolus QD. Lung lavage fluid was measured and cytokine analysis. Statistics was one-way ANOVA followed by Tukey's multiple comparison post hoc test for data with normal distribution; Kruskal-Wallis test followed by Dunn's multiple comparison post hoc test for data with skewed distribution; and the ROUT method for identifying outliers. Control or drug administered for 3 days, then LPS at 50 μL of 1 mg/ml delivered intratracheally with a Penn Century needle where a core temperature of 39 C at 24 hours post LPS and then sacrifice to measure lung lavage fluid protein concentration and serum cytokine levels.

[5] = 23.1 mg/kg BID, pre-dose to day 28, not statistically significant

With `CC(=O)[O-].CC[N+](CC)(CC(=O)Nc1c(C)cccc1C)Cc1ccccc1` [DA, denatonium acetate] the “average daily average individual food intake” value ([1]; 23.1 mg/kg BID gavage, 28 days) was “no difference”, the GM-CSF in blood ([1]; 23.1 mg/kg BID gavage, day 28) was “significant decreases” and the IFNγ in blood ([1]; 23.1 mg/kg BID gavage, day 28) was “significant decreases”. The IL-5 in blood ([1]; 23.1 mg/kg BID gavage, day 28) was “significant decreases”, the IL-10 in blood ([1]; 23.1 mg/kg BID gavage, day 28) was “significant decreases” and the IL-12 in blood ([1]; 23.1 mg/kg BID gavage, day 28) was “significant decreases”. For the same compound, the KC/CXCL1 in blood ([1]; 23.1 mg/kg BID gavage, day 28) was “significant decreases”, the M-CSF in blood ([1]; 23.1 mg/kg BID gavage, day 28) was “significant decreases” and the “blood HDL level” value ([1]; 23.1 mg/kg BID gavage, day 28) was “statistically significant decrease”. The “blood HbA1c levels” value ([1]; 23.1 mg/kg BID gavage, day 28) was “no statistically significant difference”, the “blood LDL levels” value ([1]; 23.1 mg/kg BID gavage, day 28) was “no statistically significant difference” and the “blood bile acid levels” value ([1]; 23.1 mg/kg BID gavage, day 28) was “no statistically significant difference”. The blood insulin levels ([1]; 23.1 mg/kg BID gavage, day 28) was “no statistically significant difference”, the “blood total cholesterol levels (LDL plus HDL)” value ([1]; 23.1 mg/kg BID gavage, day 28) was “almost significant decrease” and the “fasting blood glucose level” value ([1]; 23.1 mg/kg BID gavage, day 28) was “no statistically significant difference”. The body weight change ([1]; 23.1 mg/kg BID gavage, days 1-28, P=0.105) was “no significant main effect”, the “body weight change at day 28” value ([1]; 23.1 mg/kg BID gavage) was “no statistically significant difference” and the “cumulative food consumption over 28 days” value ([1]; 23.1 mg/kg BID gavage) was “no statistically significant difference”. The “change in granulocyte number” value [1, 5] was “trend of increasing change”, the “change in lymphocyte and white blood cell numbers and percentage” value [1, 5] was “trend of increasing change” and the “change in monocyte number and percentage” value [1, 5] was “trend of increasing change”. For the same compound, the IL-1β level ([2]; higher dose of DA) was “significant reduction”, the IL-10 level ([2]; higher dose of DA) was “significant reduction” and the IL-17 level ([2]; higher dose of DA) was “significant reduction”. The TNF-1α level ([2]; higher dose of DA) was “significant reduction”, the “IL-6 levels in air pouch exudates” value ([2]; pre-treated with DA at 96.4 mg/kg BID gavage, ELISA, vs vehicle and lower dose) was “significantly lower” and the “infiltrating cell count in air pouch exudates” value ([2]; pre-treated with DA at 96.4 mg/kg BID gavage, vs vehicle and lower dose) was “significantly lower”. For the same compound, the “Eotaxin, Decreased Percentage Compared to Vehicle” value [3] was −18.6%, the “G-CSF, Decreased Percentage Compared to Vehicle” value [3] was −37.5% and the “GM-CSF, Decreased Percentage Compared to Vehicle” value [3] was −2.3%. For the same compound, the “IFN-γ, Decreased Percentage Compared to Vehicle” value [3] was −37.3%, the “IL-1α, Decreased Percentage Compared to Vehicle” value [3] was −18.2% and the “IL-1β, Decreased Percentage Compared to Vehicle” value [3] was −12.0%. For the same compound, the “IL-3, Decreased Percentage Compared to Vehicle” value [3] was −74.5%, the “IL-5, Decreased Percentage Compared to Vehicle” value [3] was −29.1% and the “IL-6, Decreased Percentage Compared to Vehicle” value [3] was −34.2%. The “IL-10, Decreased Percentage Compared to Vehicle” value [3] was −92.5%, the “IL-12 (p70), Decreased Percentage Compared to Vehicle” value [3] was −28.0% and the “IL-17, Decreased Percentage Compared to Vehicle” value [3] was −21.2%. For the same compound, the “KC, Decreased Percentage Compared to Vehicle” value [3] was −21.6%, the “LIX, Decreased Percentage Compared to Vehicle” value [3] was −7.3% and the “MCP-1, Decreased Percentage Compared to Vehicle” value [3] was −24.2%. For the same compound, the “MIG, Decreased Percentage Compared to Vehicle” value [3] was −13.2%, the “MIP-1α, Decreased Percentage Compared to Vehicle” value [3] was −3.4% and the “MIP-1β, Decreased Percentage Compared to Vehicle” value [3] was −10.2%. The “MIP-2, Decreased Percentage Compared to Vehicle” value [3] was −76.3%, the “RANTES, Decreased Percentage Compared to Vehicle” value [3] was −20.6% and the “protein concentration in lung lavage fluid” value ([4]; iv 3 mg/kg bolus QD) was “drastic but not significantly reduced”. The “protein concentration in lung lavage fluid” value ([4]; oral 92.4 mg/kg BID) was “drastic but not significantly reduced”.
